Laboratory results as given in patent US20260248879A1, “METHODS OF USING A GCG/GLP1 CO-AGONIST FOR THERAPY” (ELI LILLY AND COMPANY, priority 2022, published 2026).
“And” between values parts separate entries of the source, which are not always exact repeats. Equal entries are not always repeated. Marks after values point to notes of the source that are not given here.

Tests used:
patients with T2DM = test: Example 1 study: Mixed Meal Tolerance Test (MMTT); assay type: in vivo, human
Protocol: In respect of Cohort 1, the MMTT is performed at baseline and on Day 80. In respect of Cohort 2, the MMTT is performed at baseline and on Day 108.
Patients are provided breakfast meals for the MMTTs. Upon awakening, patients consume water to stay hydrated in order to mitigate problems with blood sample collections. Patients are provided individualized breakfast meals for the MMTTs. The total caloric content is approximately 30% of the daily estimated caloric need for weight. The macronutrient composition of the meals is targeted to provide approximately 50% of the calories from carbohydrate, 30% of the calories from fat, and 20% of the calories from protein. Patients are fasted (except for water) for at least 8 hours before each test meal and consume each meal within approximately 20 minutes. Test meals for each patient are kept consistent with respect to calorie and nutrient content across all MMTT assessments in the study.
For both parts of the study, the patient is not allowed to consume water (apart from fluid provided with the meal) for approximately 3 hours post MMTT until BOD POD® measurement.
While resident in the CRU, patients may not consume any food or caloric drinks other than that provided by the CRU. When not resident in the CRU, patients may resume their regular diet. The actual time of meal start and completion, total calories, and amount of meal (%) consumed in the MMTT are recorded.

individuals with obesity = test: Example 2 study: adverse events; assay type: in vivo, human
Description: This study is designed to evaluate the safety, tolerability, PD and PK of dose to higher doses of Compound 1 in individuals with obesity. The Multiple Ascending Dose (MAD) study is a randomized, investigator- and participant-blind, placebo-controlled, multiple-ascending dose, single- or multi-site study conducted in individuals with obesity (i.e., females or males aged 18-70 years, inclusive, a BMI in the range of 27 kg/m^2 to 50 kg/m^2). Participants should have stable body weight for at least 3 months prior to the initiation of the study.
Dose of Compound 1 is assessed with weekly dosing over 20 weeks in 2 cohorts. Each cohort comprises 12 patients-nine patients are administered Compound 1 and three patients are administered placebo.
The dose for Cohort 1 is as follows: • 1.5 mg Compound 1 for 2 weeks; • 3.0 mg Compound 1 for 2 weeks; • 6.0 mg Compound 1 for 4 weeks; • 8.0 mg Compound 1 for 4 weeks; • 12.0 mg Compound 1 for 4 weeks; and • 16.0 mg Compound 1 for 4 weeks.
The dose for Cohort 2 is as follows: • 2.0 mg Compound 1 for 3 weeks; • 4.0 mg Compound 1 for 3 weeks; • 6.0 mg Compound 1 for 3 weeks; • 8.0 mg Compound 1 for 3 weeks; • 10.0 mg Compound 1 for 2 weeks; • 13.0 mg Compound 1 for 2 weeks, and • 16.0 mg Compound 1 for 4 weeks.
Safety parameters assessed during the study include: AEs (with special interest to GI AEs such as nausea, vomiting, and diarrhea), laboratory parameters, physical examinations/medical assessments, vital signs and ECGs, BW, injection site reactions, hypersensitivity reactions, and glucose monitoring (with special attention to hypoglycemia).

[1] = Example 1 study: pharmacokinetics, population PK modeling; conditions: for AUC(0-168)ss, geometric mean (CV %) / Cmax, ss, geometric mean: model-predicted steady state
Description: Up to two samples may be collected at additional time points during the study if warranted and agreed upon between both the investigator and sponsor.
All available PK data is utilized for model development.

[2] = Cohort 1, escalated to 4.5 mg, Day 80
[3] = Cohort 2, escalated to 10.0 mg, Day 108

SMILES: CC(C)C[C@H](NC(=O)[C@H](CC(C)C)NC(=O)[C@H](Cc1c[nH]c2ccccc12)NC(=O)[C@H](CCC(=O)O)NC(=O)[C@@H](NC(=O)[C@H](Cc1ccccc1)NC(=O)[C@H](CCC(=O)O)NC(=O)[C@H](CCCCNC(=O)COCCOCCNC(=O)COCCOCCNC(=O)CC[C@H](NC(=O)CCCCCCCCCCCCCCCCCCC(=O)O)C(=O)O)NC(=O)[C@H](C)NC(=O)[C@H](CCCCN)NC(=O)[C@H](CCCCN)NC(=O)[C@H](CCC(=O)O)NC(=O)[C@H](CC(=O)O)NC(=O)[C@H](CC(C)C)NC(=O)[C@H](Cc1ccc(O)cc1)NC(=O)[C@H](CCCCN)NC(=O)[C@H](CO)NC(=O)[C@H](Cc1ccc(O)cc1)NC(=O)[C@H](CC(=O)O)NC(=O)[C@H](CO)NC(=O)[C@@H](NC(=O)[C@H](Cc1ccccc1)NC(=O)[C@@H](NC(=O)CNC(=O)[C@H](CCC(N)=O)NC(=O)C(C)(C)NC(=O)[C@@H](N)Cc1c[nH]cn1)[C@@H](C)O)[C@@H](C)O)C(C)C)C(=O)N[C@@H](CCC(=O)O)C(=O)NCC(=O)NCC(=O)N1CCC[C@H]1C(=O)N[C@@H](CO)C(=O)N[C@@H](CO)C(=O)NCC(N)=O [Compound 1]
- C-peptide AUC(0-3 h) during MMTT, mean (patients with T2DM; Cohort 1 (1.5-4.5 mg QW), Day 80, baseline 4391.4): 5850.1 pmol·h/L
- C-peptide AUC(0-3 h) during MMTT, change from baseline (patients with T2DM; Cohort 1, Day 80): 1474.6* pmol · h/L
- Disposition index, change from baseline (patients with T2DM; Cohort 1, Day 80): −0.235
- First PH ISI-S, change from baseline (patients with T2DM; Cohort 1, Day 80): 12090.422
- Glucagon AUC(0-3 h) during MMTT, change from baseline (patients with T2DM; Cohort 1, Day 80): -32.50 pmol·h/L
- Glucose AUC(0-3 h) during MMTT, change from baseline (patients with T2DM; Cohort 1, Day 80): -14.37 mmol·h/L
- HOMA2-B, change from baseline (patients with T2DM; Cohort 1, Day 80): 22.971
- HOMA2-IR, change from baseline (patients with T2DM; Cohort 1, Day 80): −0.434
- ISI-M (Matsuda Index), change from baseline (patients with T2DM; Cohort 1, Day 80): 0.237
- MMTT glucose AUC 0-3 hours, approximate decrease from baseline (patients with T2DM; Cohort 1, Day 80): ~40%
- Oxyntomodulin AUC(0-3 h) during MMTT, change from baseline (patients with T2DM; Cohort 1, Day 80): -41.594 pmol·h/L
- Second PH ISI-S, change from baseline (patients with T2DM; Cohort 1, Day 80): 2273.29
- Disposition index, mean (patients with T2DM; Cohort 1, Day 80, baseline 1.033): 0.642
- ISI-M (Matsuda Index), mean (patients with T2DM; Cohort 1, Day 80, baseline 3.568): 3.567
- HOMA2-IR, mean (patients with T2DM; Cohort 1, Day 80, baseline 4.704): 4.271
- HOMA2-B, mean (patients with T2DM; Cohort 1, Day 80, baseline 15.791): 38.762
- Glucose AUC(0-3 h) during MMTT, mean (patients with T2DM; Cohort 1, Day 80, baseline 43.06): 25.76 mmol·h/L and 25.72 mmol·h/L
- Glucagon AUC(0-3 h) during MMTT, mean (patients with T2DM; Cohort 1, Day 80, baseline 64.98): 27.93 pmol·h/L
- Oxyntomodulin AUC(0-3 h) during MMTT, mean (patients with T2DM; Cohort 1, Day 80, baseline 89.822): 58.042 pmol·h/L
- Second PH ISI-S (second phase Stumvoll Index), mean (patients with T2DM; Cohort 1, Day 80, baseline −6253.26): −3634.241
- First PH ISI-S (first phase Stumvoll Index), mean (patients with T2DM; Cohort 1, Day 80, baseline −33534.1): −19605.805
- MMTT C-peptide AUC 0-3 hours, approximate increase from baseline (patients with T2DM; [2]): ~33%
- MMTT glucagon AUC 0-3 hours, approximate decrease from baseline (patients with T2DM; [2]): ~57%
- MMTT insulin AUC 0-3 hours, approximate increase from baseline (patients with T2DM; [2]): ~51%
- Matsuda index (ISI-M) versus baseline (patients with T2DM; [2]): no change from baseline
- MMTT insulin mean area under the curve 0-3 hours (patients with T2DM; Cohort 1, escalated to 4.5 mg, Day 80, baseline 125.233): 189.435 h*mIU/L
- C-peptide AUC(0-3 h) during MMTT, mean (patients with T2DM; Cohort 2 (2-10 mg QW), Day 108, baseline 3604.1): 3147.4 pmol·h/L
- C-peptide AUC(0-3 h) during MMTT, change from baseline (patients with T2DM; Cohort 2, Day 108): -897.4 pmol·h/L
- Disposition index, change from baseline (patients with T2DM; Cohort 2, Day 108): −0.198
- First PH ISI-S (first phase Stumvoll Index), mean (patients with T2DM; Cohort 2, Day 108): −19372.347
- First PH ISI-S, change from baseline (patients with T2DM; Cohort 2, Day 108): 11985.334
- Glucagon AUC(0-3 h) during MMTT, change from baseline (patients with T2DM; Cohort 2, Day 108): -40.55 pmol·h/L
- Glucose AUC(0-3 h) during MMTT, change from baseline (patients with T2DM; Cohort 2, Day 108): -15.73 mmol·h/L
- HOMA2-B, change from baseline (patients with T2DM; Cohort 2, Day 108): 3.824
- HOMA2-IR, change from baseline (patients with T2DM; Cohort 2, Day 108): −1.071
- ISI-M (Matsuda Index), change from baseline (patients with T2DM; Cohort 2, Day 108): 5.905
- Oxyntomodulin AUC(0-3 h) during MMTT, change from baseline (patients with T2DM; Cohort 2, Day 108): -49.843 pmol·h/L
- Second PH ISI-S, change from baseline (patients with T2DM; Cohort 2, Day 108): 2252.292
- Disposition index, mean (patients with T2DM; Cohort 2, Day 108, baseline 1.276): 1.265
- HOMA2-IR, mean (patients with T2DM; Cohort 2, Day 108, baseline 2.7): 1.325
- ISI-M (Matsuda Index), mean (patients with T2DM; Cohort 2, Day 108, baseline 4.616): 10.7
- HOMA2-B, mean (patients with T2DM; Cohort 2, Day 108, baseline 9.108): 12.077
- Glucose AUC(0-3 h) during MMTT, mean (patients with T2DM; Cohort 2, Day 108, baseline 38.27): 23.74 mmol·h/L
- Glucagon AUC(0-3 h) during MMTT, mean (patients with T2DM; Cohort 2, Day 108, baseline 39.89): 7.61 pmol·h/L
- Oxyntomodulin AUC(0-3 h) during MMTT, mean (patients with T2DM; Cohort 2, Day 108, baseline 124.741): 66.077 pmol·h/L
- Second PH ISI-S (second phase Stumvoll Index), mean (patients with T2DM; Cohort 2, Day 108, baseline −5889.19): −3593.001
- MMTT C-peptide AUC 0-3 hours, approximate decrease from baseline (patients with T2DM; [3]): ~13%
- MMTT glucagon AUC 0-3 hours, approximate decrease from baseline (patients with T2DM; [3]): ~81%
- MMTT glucose AUC 0-3 hours, approximate decrease from baseline (patients with T2DM; [3]): ~38%
- MMTT insulin AUC 0-3 hours, approximate decrease from baseline (patients with T2DM; [3]): ~10%
- Matsuda index (ISI-M), approximate increase from baseline (patients with T2DM; [3]): approximately 132%
- MMTT insulin area under the curve 0-3 hours (patients with T2DM; Cohort 2, escalated to 10.0 mg, Day 108, baseline 77.692): 69.847 h*mIU/L
- sMMTT total cholesterol levels (patients with T2DM; Cohort 2 doses (FIG. 7b)): substantially reduced
- sMMTT HDL cholesterol levels (patients with T2DM; Cohort 2 doses (FIG. 7e)): substantially reduce
- sMMTT LDL cholesterol levels (patients with T2DM; Cohort 2 doses (FIG. 7f)): substantially reduce
- sMMTT triglyceride levels (patients with T2DM; Cohort 2 doses (FIG. 7h)): substantially reduce
- reduction of glucagon secretion from baseline in response to mixed meals (patients with T2DM; dose up to 4.5 mg): greater than 50%
- reduction of glucagon secretion from baseline in response to mixed meals (patients with T2DM; dose up to 10 mg): greater than 80%
- deaths (individuals with obesity; Example 2 study): No deaths occurred
- most common treatment-emergent adverse events (individuals with obesity; in vivo): gastrointestinal in nature (nausea, vomiting, diarrhea)
- serious adverse events (individuals with obesity; in vivo): No serious adverse events were observed
- Vd/F ([1]; human, plasma, sc): 9.52 L
- AUC(0-168)ss, geometric mean (CV %) ([1]; 4.5 mg QW): 106000 (22.5%) ng · h/mL
- Cmax, ss, geometric mean ([1]; 4.5 mg QW): 698 ng/mL
- AUC(0-168)ss, geometric mean (CV %) ([1]; 10 mg QW): 239000 (23.9%) ng · h/mL
- Cmax, ss, geometric mean ([1]; 10 mg QW): 1570 ng/mL
- Absorption rate constant, KA, population mean estimate ([1]; population PK model, 355 concentrations from 18 patients, SC QW): 0.0299 h⁻¹
